Calls of active or inactive are those of the source. The calls are words filed in the database; no cut-off is given here.
Columns and labels:
SH-SY5Y [1] = assay: Neuroprotective activity in human SH-SY5Y cells assessed as reduction in oxygen-glucose deprivation-induced cytotoxicity at 10 uM relative to untreated control; type: functional, cell-based
SH-SY5Y [2] = assay: Neuroprotective activity in human SH-SY5Y cells assessed as reduction in glutamate-induced cytotoxicity at 10 uM relative to untreated control; type: functional, cell-based
SH-SY5Y [3] = assay: Neuroprotective activity in human SH-SY5Y cells assessed as reduction in hydrogen peroxide-induced cytotoxicity by measuring cell viability level at 10 uM (reference value: 50.7+/- 2.6%); type: functional
SH-SY5Y [4] = assay: Cytotoxicity against human SH-SY5Y cells assessed as reduction in cell viability level at 10 uM relative to untreated control; type: cell-based

SMILES	Activity (SH-SY5Y [1])	Activity (SH-SY5Y [2])	Activity (SH-SY5Y [3])	Activity (SH-SY5Y [4])
O=C(/C=C/c1ccc(O)c(O)c1)O[C@@H]1C[C@@](O)(C(=O)O)C[C@@H](O)[C@@H]1OC(=O)[C@@H]1[C@@H](c2ccc(O)c(O)c2)[C@@]2(CO)C=CC(=O)[C@@H]1O2	inactive	inactive	75.6%	
O=C(/C=C/c1ccc(O)c(O)c1)O[C@@H]1[C@H](O)C[C@@](O)(C(=O)O)C[C@H]1OC(=O)[C@@H]1[C@@H]2O[C@@](CO)(C=CC2=O)[C@H]1c1ccc(O)c(O)c1	inactive	inactive	76.7%	
COc1ccc(-c2cc(=O)c3c(O)cc(O[C@@H]4O[C@H](CO)[C@@H](O)[C@H](O)[C@H]4O)cc3o2)cc1O	inactive	inactive		
O=c1cc(-c2ccc(O)c(O)c2)oc2cc(O[C@@H]3O[C@H](CO)[C@@H](O)[C@H](O)[C@H]3O)cc(O)c12 [GALUTEOLIN]	inactive	inactive	87.6%	
CC(=O)OC[C@H]1O[C@@H](Oc2cc(O)c3c(=O)cc(-c4ccc(O)c(O)c4)oc3c2)[C@H](O)[C@@H](O)[C@@H]1O	inactive	inactive		
O=c1cc(-c2ccc(O)cc2)oc2cc(O[C@@H]3O[C@H](CO)[C@@H](O)[C@H](O)[C@H]3O)cc(O)c12	inactive	inactive		
O=c1cc(-c2ccc(O[C@@H]3O[C@H](CO)[C@@H](O)[C@H](O)[C@H]3O)c(O)c2)oc2cc(O[C@@H]3O[C@H](CO)[C@@H](O)[C@H](O)[C@H]3O)cc(O)c12	inactive	inactive		
CCCC[C@@H]1OC(=O)c2ccccc21 [(3S)-BUTYLPHTHALIDE]			73.9%	
O=C(/C=C/c1ccc(O)c(O)c1)O[C@@H]1[C@H](O)C[C@@](O)(C(=O)O)C[C@H]1OC(=O)[C@@H]1[C@@H](c2ccc(O)c(O)c2)[C@@]2(CO)C=CC(=O)[C@@H]1O2	inactive	inactive	78.4%	
O=C(/C=C/c1ccc(O)c(O)c1)O[C@@H]1C[C@](O)(C(=O)O)C[C@@H](O)[C@H]1O	inactive	inactive	inactive	
O=C(/C=C/c1ccc(O)c(O)c1)O[C@@H]1[C@H](O)C[C@@](O)(C(=O)O)C[C@H]1OC(=O)/C=C/c1ccc(O)c(O)c1	inactive	inactive	75.2%	
CC(=O)O[C@@H]1[C@H](O)C[C@@](O)(C(=O)O)C[C@H]1OC(=O)/C=C/c1ccc(O)c(O)c1	inactive	inactive		Toxic
O=C(/C=C/c1ccc(O)c(O)c1)O[C@@H]1C[C@@](OC(=O)/C=C/c2ccc(O)c(O)c2)(C(=O)O)C[C@@H](O)[C@@H]1O [CYNARIN]	inactive	inactive	77.2%	
O=C(O)[C@H]1O[C@@H](Oc2cc(O)c3c(=O)cc(-c4ccc(O)c(O)c4)oc3c2)[C@H](O)[C@@H](O)[C@@H]1O	inactive	inactive	80.9%	

From ChEMBL document CHEMBL4043071, “Neuroprotective Caffeoylquinic Acid Derivatives from the Flowers of Chrysanthemum morifolium” (J Nat Prod, 2017)
